Values of other authors in patent US12528029B2, “Separating and quantifying unbound target analytes from biological samples” (ARUP Laboratories, Inc., priority 2017, dated 2026).

Key:
[1] = target: T1, sex hormone-binding globulin (SHBG) (Homo sapiens, UniProt P04278); details: share of the protein-bound Te; remainder weakly bound to albumin
T1 sequence (P04278 30-402): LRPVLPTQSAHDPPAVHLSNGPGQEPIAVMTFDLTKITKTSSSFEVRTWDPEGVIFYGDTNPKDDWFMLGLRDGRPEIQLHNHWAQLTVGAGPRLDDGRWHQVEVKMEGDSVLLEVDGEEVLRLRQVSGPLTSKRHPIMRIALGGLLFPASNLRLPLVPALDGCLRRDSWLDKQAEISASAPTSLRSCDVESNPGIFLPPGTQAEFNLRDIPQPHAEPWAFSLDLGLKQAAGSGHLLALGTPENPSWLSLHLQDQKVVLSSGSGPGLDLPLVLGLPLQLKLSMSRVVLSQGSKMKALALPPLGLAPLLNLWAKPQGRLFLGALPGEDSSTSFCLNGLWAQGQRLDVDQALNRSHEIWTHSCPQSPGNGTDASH

[2] = target: T2, vitamin D binding protein (VDBP) (Homo sapiens, UniProt P02774); details: serum
T2 construct: host or cells: circulating blood / serum
T2 sequence (P02774 17-474): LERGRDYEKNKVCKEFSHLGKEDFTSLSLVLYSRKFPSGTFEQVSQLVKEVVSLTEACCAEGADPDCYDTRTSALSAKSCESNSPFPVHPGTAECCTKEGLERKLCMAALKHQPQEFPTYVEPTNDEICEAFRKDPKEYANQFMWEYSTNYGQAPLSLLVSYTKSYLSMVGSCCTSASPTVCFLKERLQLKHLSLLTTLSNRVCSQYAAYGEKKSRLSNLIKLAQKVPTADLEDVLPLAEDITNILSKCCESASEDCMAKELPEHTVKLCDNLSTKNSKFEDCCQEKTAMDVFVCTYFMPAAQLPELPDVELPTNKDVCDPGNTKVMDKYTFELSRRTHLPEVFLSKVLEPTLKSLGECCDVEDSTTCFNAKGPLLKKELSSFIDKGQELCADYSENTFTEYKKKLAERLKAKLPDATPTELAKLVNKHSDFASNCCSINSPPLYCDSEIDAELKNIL

albumin = target: T3, albumin (Homo sapiens, UniProt P02768)
T3 construct: host or cells: circulating blood / serum
T3 sequence (P02768 25-609): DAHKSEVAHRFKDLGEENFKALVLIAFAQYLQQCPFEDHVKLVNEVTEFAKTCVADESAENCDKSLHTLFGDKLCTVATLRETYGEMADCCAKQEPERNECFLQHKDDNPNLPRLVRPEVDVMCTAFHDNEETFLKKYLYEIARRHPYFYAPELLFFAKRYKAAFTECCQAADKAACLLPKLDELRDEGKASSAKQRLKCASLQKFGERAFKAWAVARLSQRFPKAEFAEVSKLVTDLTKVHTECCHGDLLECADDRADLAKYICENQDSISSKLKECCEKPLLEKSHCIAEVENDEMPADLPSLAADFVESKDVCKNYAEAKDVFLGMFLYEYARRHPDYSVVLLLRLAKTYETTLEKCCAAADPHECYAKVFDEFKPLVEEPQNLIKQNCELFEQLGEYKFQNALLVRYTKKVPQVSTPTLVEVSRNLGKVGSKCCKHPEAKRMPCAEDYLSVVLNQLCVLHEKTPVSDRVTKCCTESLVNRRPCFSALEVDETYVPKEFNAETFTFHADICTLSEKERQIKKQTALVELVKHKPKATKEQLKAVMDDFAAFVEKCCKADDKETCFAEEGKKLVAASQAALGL

Compound | fraction of Te present in unbound, free form (circulating in blood) | protein bound Te strongly bound to SHBG [1] | circulating vitamin D in the form of 25OHD, tightly bound to VDBP [2] | circulating 25OHD that is free (not protein bound) (circulating) | 25OHD circulating in blood bound to albumin (albumin)
C[C@]12CC[C@H]3[C@@H](CCC4=CC(=O)CC[C@@]43C)[C@@H]1CC[C@@H]2O [Te, Testosterone] | 1-3% | 60-70% |  |  | 
25-hydroxy vitamin D [25OHD] |  |  | 85-90% | Less than 0.1% | 10-15%
